This note sets out measurements from patent US10793563B2, “GCN2 inhibitors and uses thereof” (Merck Patent GmbH, priority 2018, dated 2020).

Test [1] concerns the target GCN2 kinase (Homo sapiens (Human), UniProt Q9P2K8). Put plainly: GCN2 Enzyme Inhibition Assay (Transcreener ADP2 fluorescence polarization). To be noted: 280 μM ATP, 200 μM (RS)7 peptide, 4 nM GCN2, 25° C. It is filed as biochemical. The essentials:
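Transcreener ADP2 fluorescence polarization detection of ADP from 4 nM GCN2 with (RS)7 substrate in 25 mM Tris-HCl pH 7.5, 50 mM NaCl, 10 mM MgCl2, 1 mM DTT. Compound pre-incubated with enzyme 10 min at 25 °C; reaction started by ATP, run 1 h at 25 °C. IC50 and Ki(app) by tight-binding fit.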
A general note: In fluorescence polarisation assays a small probe gives low polarisation when free and higher when bound to something large.

In test [2] the target is intracellular GCN2 (phosphorylation of the GCN2 substrate eIF2α) (Homo sapiens (Human), UniProt Q9P2K8). The test can be described thus: GCN2 Cellular Inhibition Assay (AlphaScreen SureFire P-eIF2α Ser51, borrelidin-treated U2OS cells). In kind it is cell-based. Particulars: 10 μM borrelidin, 1 h, phosphorylated eIF2α Ser51, read-out: GCN2 Biomarker (IC50). The gist of the method:
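U2OS cells adhered overnight, then given compound (top 40 μM, 4-fold serial dilutions) plus 10 μM borrelidin for 1 h at 37 °C. Lysates assayed for eIF2α phospho-Ser51 by AlphaScreen SureFire; % inhibition versus borrelidin-only wells.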

Test [3] relates to primary human pan T-cells. The test can be described thus: Human IL-2 Assay for GCN2 Inhibition (IL-2 secretion from T cells in low amino acid condition). In kind it is cell-based. Particulars: IL-2 secretion from human T cells stimulated with anti-CD3/CD28 in low amino acid condition, ELISA; for EC50: Homo sapiens, T-cell, 96 h, read-out: IL2/T-cell EC50. From the text:
Tumor microenvironment is profoundly immuno-suppressive. This may be attributed to the depletion of amino acids (like arginine and tryptophan) which triggers the activation of GCN2 in immune cells, including T cell and myeloid cells. In T cells, activation of GCN2 leads to reduce effector functions of CD8 T cells and induction and/or maintenance of immuno-suppressive T-regs. Inhibition of that immuno-suppressive response by GCN2 inhibitors enables an anti-cancer immune response by activating effector T-cells. Herein we describe an in-vitro system we established using human T-cells stimulated in low amino acid condition in order to engage the GCN2 biology. The method described involves the modulation of IL-2 levels secreted by human T cells in responses to the GCN2 inhibitors disclosed herein.
Amino acid-free RPMI was reconstituted with all but one of the amino acids found in standard RMPI (e.g. Arginine, Tryptophan), 10% charcoal-stripped fetal bovine serum, 100 Units/mL penicillin and 0.1 mg/mL streptomycin. Primary human pan T-cells were isolated using Pan T Cell Isolation Kit, human (MACS Miltenyi biotech Cat # Order no. 130-096-535) from apheresis cones and 5×104 pan T-cells per well. The purified T cells are seeded in Nunc™ 96-Well Polystyrene Round Bottom Microwell Plates (the cells are rested in No TRP media in a 15 ml falcon tube in the incubator for 30-45 minutes while titrations for tryptophan and the GCN2 inhibitor compound are made) A plate matrix was developed to titrate both a GCN2 inhibitor and the amino acid of interest ranging from “No Amino Acid” condition, up to the concentration found in the regular RPMI media (20 μM for TRP and 950 μM for Arginine). The cells were incubated for 30 min at 37° C. with the GCN2 inhibitor and then stimulated with 5×104 anti-CD3/CD28 Dynabeads® per well. After 96 hours of incubation the IL-2 level in the supernatant were measured using ELISA (R&D systems Cat # DY202 (Human IL-2 DuoSet ELISA). Data were plotted in GraphPad Prism software and EC50 is calculated.
On the technique in general: An ELISA detects its analyte on a solid surface through an enzyme-linked reagent.

Chain of intracellular GCN2 (phosphorylation of the GCN2 substrate eIF2α) (Q9P2K8 whole entry): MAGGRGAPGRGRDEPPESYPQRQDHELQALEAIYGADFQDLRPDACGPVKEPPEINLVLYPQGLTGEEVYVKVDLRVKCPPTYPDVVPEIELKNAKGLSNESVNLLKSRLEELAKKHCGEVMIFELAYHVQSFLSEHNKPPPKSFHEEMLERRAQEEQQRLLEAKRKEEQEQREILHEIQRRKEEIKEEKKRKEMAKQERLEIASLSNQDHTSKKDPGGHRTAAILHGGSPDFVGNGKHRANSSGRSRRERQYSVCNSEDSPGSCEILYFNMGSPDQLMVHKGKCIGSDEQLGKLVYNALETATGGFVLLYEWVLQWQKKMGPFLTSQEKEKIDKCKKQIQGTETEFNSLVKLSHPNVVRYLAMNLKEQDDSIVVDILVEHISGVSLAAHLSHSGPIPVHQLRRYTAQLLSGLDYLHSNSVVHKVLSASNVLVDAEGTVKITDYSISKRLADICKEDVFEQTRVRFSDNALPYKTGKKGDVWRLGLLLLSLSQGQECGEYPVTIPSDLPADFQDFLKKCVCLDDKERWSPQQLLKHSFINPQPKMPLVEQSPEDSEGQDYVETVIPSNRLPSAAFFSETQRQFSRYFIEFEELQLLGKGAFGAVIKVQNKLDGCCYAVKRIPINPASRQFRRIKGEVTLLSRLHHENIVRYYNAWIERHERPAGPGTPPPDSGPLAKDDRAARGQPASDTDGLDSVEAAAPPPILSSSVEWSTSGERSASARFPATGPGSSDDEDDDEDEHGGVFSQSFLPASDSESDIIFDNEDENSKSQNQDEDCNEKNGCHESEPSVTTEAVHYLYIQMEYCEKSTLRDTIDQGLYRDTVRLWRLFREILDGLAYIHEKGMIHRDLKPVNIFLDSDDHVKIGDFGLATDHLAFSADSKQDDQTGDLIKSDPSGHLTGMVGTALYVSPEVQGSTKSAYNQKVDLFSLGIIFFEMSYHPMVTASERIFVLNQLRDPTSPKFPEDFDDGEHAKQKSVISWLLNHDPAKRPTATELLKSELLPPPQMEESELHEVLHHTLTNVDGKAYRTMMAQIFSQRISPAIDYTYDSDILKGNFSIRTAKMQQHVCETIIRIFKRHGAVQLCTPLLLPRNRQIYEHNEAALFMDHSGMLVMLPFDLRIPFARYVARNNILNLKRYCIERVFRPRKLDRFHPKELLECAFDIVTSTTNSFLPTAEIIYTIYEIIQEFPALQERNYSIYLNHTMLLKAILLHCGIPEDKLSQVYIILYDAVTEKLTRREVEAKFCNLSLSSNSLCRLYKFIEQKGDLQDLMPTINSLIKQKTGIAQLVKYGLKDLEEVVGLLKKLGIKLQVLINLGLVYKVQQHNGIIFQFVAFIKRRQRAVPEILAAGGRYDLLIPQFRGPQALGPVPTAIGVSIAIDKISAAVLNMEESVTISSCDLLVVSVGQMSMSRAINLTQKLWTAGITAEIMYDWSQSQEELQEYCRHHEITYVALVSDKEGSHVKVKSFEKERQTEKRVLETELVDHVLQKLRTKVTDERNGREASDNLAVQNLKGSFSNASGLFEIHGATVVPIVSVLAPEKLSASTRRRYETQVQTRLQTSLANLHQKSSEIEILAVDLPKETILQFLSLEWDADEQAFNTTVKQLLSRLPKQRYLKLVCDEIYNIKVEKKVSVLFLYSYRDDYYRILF
Chain of GCN2 kinase (Q9P2K8 whole entry): as above

Take `Cc1[nH]ncc1[C@H]1[C@@H](C)N(c2ccnc(-c3cnc4ccc(C(F)(F)F)cn34)n2)CCN1C1COC1` [I-366]: the IC50 in test [1] was under 10 nM; in test [2] it was under 500 nM. The EC50 in test [3] is under 100 nM.
The matching figures for `C[C@H]1C[C@@H](N=S(C)(C)=O)CN(c2ccnc(-c3cnc4ccc(Cl)cn34)n2)C1` (stereo in doubt) [I-128, (((3R,5S)-1-(2-(6-chloroimidazo[1,2-a]pyridin-3-yl)pyrimidin-4-yl)-5-methylpiperidin-3-yl)imino)dimethyl-λ6-sulfanone]: 10 to 100 nM, under 500 nM and over 500 nM.
The like results for `C[C@@H]1CN(c2nccc(-c3cnc4ccc(C(F)(F)F)cn34)n2)C[C@H](c2cn[nH]c2)O1` [I-127, 3-{2-[(2R,6S)-2-Methyl-6-(1H-pyrazol-4-yl)-morpholin-4-yl]-pyrimidin-4-yl}-6-trifluoromethyl-imidazo[1,2-a]pyridine] were, in that order, under 10 nM, under 500 nM and under 100 nM.
The like results for `C[C@H]1CN(c2nccc(-c3cnc4ccc(C(F)(F)F)cn34)n2)[C@@H](C)C(c2cn[nH]c2)N1` (stereo partly drawn) [I-170, 3-(2-((2S,5S)-2,5-dimethyl-3-(1H-pyrazol-4-yl)piperazin-1-yl)pyrimidin-4-yl)-6-(trifluoromethyl)imidazo[1,2-a]pyridine] were, in that order, 10 to 100 nM, under 500 nM and 100 to 500 nM.
For the compound `NC(=O)[C@H]1CCCN(c2ccnc(-c3cnc4ccc(C(F)(F)F)cn34)n2)C1` [I-154, (S)-1-[2-(6-Trifluoromethyl-imidazo[1,2-a]pyridin-3-yl)-pyrimidin-4-yl]-piperidine-3-carboxylic acid amide], the IC50 was under 10 nM in test [1] and under 500 nM in test [2]. Further, the Ki in test [1] (Ki(app)) was under 10 nM. For the same compound, the EC50 in test [3] is under 100 nM.
For the compound `Cc1cc(-c2cnc3ccc(Cl)cn23)nc(N2C[C@H](C)C[C@H](c3cn[nH]c3)C2)n1` [I-209, 6-chloro-3-(6-methyl-2-((3R,5R)-3-methyl-5-(1H-pyrazol-4-yl)piperidin-1-yl)pyrimidin-4-yl)imidazo[1,2-a]pyridine], the IC50 was 10 to 100 nM in test [1] and under 500 nM in test [2]. For the same compound, in test [3], the EC50 lay in the range of 100 to 500 nM.
The like results for `C[C@@H]1C[C@H](c2cn[nH]c2)CN(c2nccc(-c3cnc4ccc(C5CC5)cn34)n2)C1` [I-249, 6-Cyclopropyl-3-{2-[(3R,5R)-3-methyl-5-(1H-pyrazol-4-yl)-piperidin-1-yl]-pyrimidin-4-yl}-imidazo[1,2-a]pyridine] were, in that order, under 10 nM, under 500 nM and 100 to 500 nM.
Turning to `Cc1n[nH]cc1[C@@H]1CN(c2ccnc(-c3cnc4cc(Cl)c(C(F)(F)F)cn34)n2)C[C@H](C)O1` [I-359, (2S,6R)-4-(2-(7-chloro-6-(trifluoromethyl)imidazo[1,2-a]pyridin-3-yl)pyrimidin-4-yl)-2-methyl-6-(3-methyl-1H-pyrazol-4-yl)morpholine], the IC50 in test [1] was under 10 nM; in test [2], under 500 nM. Moreover, the EC50 in test [3] lay within 100 to 500 nM.
The matching figures for `C[C@@H]1C[C@H](N=S(C)(C)=O)CN(c2nccc(-c3cnc4ccc(C(F)F)cn34)n2)C1` [I-499, (((3 S,5R)-1-(4-(6-(difluoromethyl)imidazo[1,2-a]pyridin-3-yl)pyrimidin-2-yl)-5-methylpiperidin-3-yl)imino)dimethyl-λ6-sulfanone]: under 10 nM, under 500 nM and over 500 nM.
As for `C[C@@H]1C[C@H](N=S(C)(C)=O)CN(c2ccnc(-c3cnc4cc(F)c(Cl)cn34)n2)C1` [I-191, (((3 S, 5R)-1-(2-(6-chloro-7-fluoroimidazo[1,2-a]pyridin-3-yl)pyrimidin-4-yl)-5-methylpiperidin-3-yl)imino)dimethyl-λ6-sulfanone], the IC50 in test [1] was 10 to 100 nM; in test [2], under 500 nM. In test [3] (96 hours), the “IL2/T-cell EC50” value was “− (“−” for not active)”.
`C[C@@H]1CN(c2nccc(-c3cnc4ccc(C(F)(F)F)cn34)n2)C[C@@H](c2cn[nH]c2)O1` [I-135, (2R,6R)-2-methyl-6-(1H-pyrazol-4-yl)-4-(4-(6-(trifluoromethyl)imidazo[1,2-a]pyridin-3-yl)pyrimidin-2-yl)morpholine]: the IC50 is under 10 nM in test [1] and under 500 nM in test [2]. For the same compound, in test [3], the EC50 was 100 to 500 nM.
The matching figures for `C[C@@H]1CN(c2ccnc(-c3cnc4ccc(OC(F)(F)F)cn34)n2)C[C@H](c2cn[nH]c2)O1` [I-293, (2R,6 S)-2-methyl-6-(1H-pyrazol-4-yl)-4-(2-(6-(trifluoromethoxy)imidazo[1,2-a]pyridin-3-yl)pyrimidin-4-yl)morpholine]: under 10 nM, under 500 nM and under 100 nM.
Take `Cc1[nH]ncc1[C@@H]1CN(c2nccc(-c3cnc4ccc(Cl)cn34)n2)C[C@H](C)O1` [I-179, (2S,6R)-4-(4-(6-chloroimidazo[1,2-a]pyridin-3-yl)pyrimidin-2-yl)-2-methyl-6-(5-methyl-1H-pyrazol-4-yl)morpholine]: the figures for the IC50 in test [1] and in test [2] were under 10 nM and under 500 nM, respectively. Further, in test [3], the EC50 lay within 100 to 500 nM.

What is called IC50 is the midpoint of a concentration-inhibition curve.
